Source: EP4755886A1 (Chengdu Chipscreen Pharmaceutical Ltd., priority 2023, dated 2025)

Tested on: gene-editing MTAP-/- human colon cancer cell strain HCT116
Experiment: Efficacy in MTAP-/- HCT116 subcutaneous xenograft mouse model
Format: in vivo, Balb/c nude mice
Settings: 10 mg/kg, PO, qd, 28 days
Method: The blank group contained 40% PEG400 normal saline with 2% DMSO. […] The test substance was intragastrically administered at 10 mg/kg once daily, and MRTX1719 was intragastrically administered at 50 mg/kg once daily. Model control: The vehicle (2% DMSO + 40% PEG400 + 58% normal saline) was intragastrically administered at a dose of 10 mL/kg once daily. Administration was performed for 28 days in total. […] The mice were euthanized on the day when the last administration was completed. […] In the formula, VTt represents the tumor volume of the treatment group at each measurement, and VT0 represents the tumor volume measured when the treatment group is grouped; VCt represents the tumor volume of the vehicle group at each measurement (same as VTt), and VC0 represents the tumor volume measured when the vehicle group is grouped. Data were analyzed using GraphPad Prism 9.0 software and expressed as Mean ± SEM (standard error). Pairwise comparisons between each administration group and the control group were performed using one-way analysis of variance (ANOVA). Variance homogeneity was determined using the Brown-Forsythe method, and variance heterogeneity was determined using the Dunnett's T3 method. Table 7. Efficacy evaluation in HCT116 subcutaneous xenograft mouse model

SMILES: CN(C(=O)c1cc2c(cc1F)nc(N)c1cnn(C)c12)[C@@H]1COc2cc(C#Cc3cnn(C)c3)ccc21 [Compound 5A, (S)-4-amino-7-fluoro-N,1-dimethyl-N-(6-((1-methyl-1H-pyrazol-4-yl)ethynyl)-2,3-dihydrobenzofuran-3-yl)-1H-pyrazolo[4,3-c]quinoline-8-carboxamide]
- TGI: 82.25%
- Tumor volume: 378.72 mm^3
